# Test results: publication PMC13334477 (RSC Medicinal Chemistry, 2026)
# Read-outs that look alike come from different tables or passages of the source.
# Legend:
# [1] = system: DK100 (DNA, duplex) CGCGGGCCCGCG; test: native ESI-MS; details: 100 mM ammonium acetate (NH4+), no K+, apparent, 10 μM DNA, 20 μM ligand, 4 °C incubation
# TG4T (DNA, G4) TGGGGT = test: native ESI-MS; details: 100 mM ammonium acetate (NH4+), no K+; apparent, site 1 of 2; 10 μM DNA, 20 μM ligand, 4 °C incubation
# [2] = target: G4T4G4 DNA G4 (antiparallel); test: Native ESI-MS, G4T4G4; assay type: binding; details: 10 μM DNA, 20 μM ligand, 100 mM ammonium acetate
# Protocol: Oligonucleotides were purchased lyophilized and RP-cartridge purified from Eurogentec (Kanaka Eurogentec, Seraing, Belgium), then buffer exchanged with ammonium acetate (5 M; Sigma-Aldrich, Saint-Quentin-Fallavier, France) using Amicon Ultra (3 K cut-off; Merck Millipore, Cork, Ireland). The concentrations of the initial stock solutions of DNA/RNA (∼1 mM) were measured by UV absorbance at 260 nm. Sample solutions were prepared by diluting the appropriate volume of oligonucleotide stock solutions to reach 10 μM of DNA/RNA and 20 μM of ligand, in 100 mM ammonium acetate. The solutions were incubated for 16 h at 4 °C before analysis by mass spectrometry. […] These parameters ensured a good signal intensity without disrupting noncovalent complexes, which was verified using d[G4T4G4]2 as a control. The presented spectra of all DNA/RNA used in this work (Fig. 5, S9 and S10) result from 8 min accumulations. The abundance of each species, M, M + 1L, M + 2L and M + 3L complexes, where M is a monomer oligonucleotide and L is a ligand, was determined from their peak area signals (A), from the sum of the −4, −5 and −6 charge states for DNA and from the sum of the −5, −6 and −7 charge states for RNA, assuming that their response factors are equal. The molar concentrations were then calculated knowing the total amount of oligonucleotide [M]tot: [drawing 1] [drawing 2] [drawing 3] [drawing 4] The concentration of the free ligand, [L]free, was determined from its total concentration [L]tot:[L]free = [L]tot − [M + 1L] − 2[M + 2L] − 3[M + 3L]Apparent consecutive dissociation constants (Kd1, Kd2 and Kd3) were calculated by using the following equations: [drawing 5] [drawing 6] [drawing 7]
# We further analysed the formation of the DBA/G4 complexes by native electrospray ionization mass spectrometry (ESI-MS). We initially attempted to analyze DBA binding to the primary G4 targets from HIV-1 (HIVpro1, HIVpro2, LTR4 and rLTR4 RNA). […] These sequences span the major G4 topological classes and provide a representative assessment of DBA binding across diverse G4 architectures. We also included two DNA duplex controls (DK100 and DK66) to evaluate binding selectivity. This ESI-MS approach enables direct determination of binding stoichiometry, quantification of each species in solution, and calculation of dissociation constants (Kd) from the relative abundances of free and bound forms.[88,97]
# In the ESI-MS conditions, the rLTR4 G4 (10 μM) forms a dimeric structure. […] Among the six DNA and RNA tested here (Fig. 5B, S9 and S10) only rLTR4 presented 1 : 3 G4/DBA complexes. In all cases but one, the 1 : 1 stoichiometry represents the major species in solution while for rLTR4 it is the 1 : 2 (green). […] For TG4T tetramolecular G4 or G4T4G4 bimolecular G4 only 1 : 1 and 1 : 2 complexes were detected (Fig. S9A and S10A). […] The weakest binding was obtained for the G4T4G4 antiparallel G4 and Htel sequence with Kd1s ranging from 11 μM for to 500 μM (Table 2).
# [3] = system: rLTR4-3′Cy5 (parallel RNA G4); test: Ligand-induced fluorescence quenching assay (FQA), rLTR4-3′Cy5; assay type: binding, HIV-1
# Protocol: Cy5 labelled oligonucleotides were purchased lyophilized and RP-cartridge purified from Eurogentec (Kanaka Eurogentec, Seraing, Belgium). The ligand-induced fluorescence quenching assay was conducted as previously described.[47] A Stratagene Mx3005P instrument was used to carry out the assay in 96-well plates. The filters for excitation and emission were set at 635 nm and 665 nm, respectively. The gain was used at 8×. The labeled oligonucleotide was used at 10 nM, and the buffer was 10 mM lithium cacodylate (pH 7.2), 10 mM KCl, and 90 mM LiCl in a final volume of 50 μL. The oligonucleotide was heated at 90 °C for 5 min and put in ice to anneal. The ligand was added over a range of concentrations between 0 and 80 μM. A competitor, ds26, was also added at 3 or 10 μM. Each experimental condition was tested in triplicate except for the ligand alone with the buffer, which was tested in duplicate. The instrument was programmed to heat the plate for 10 min at 25 °C and measure the fluorescence after 1 min for 5 cycles. The fluorescence of each sample was normalized, and the fluorescence of the ligand alone was subtracted.
# We then addressed the binding of the DBA series to the rLTR4 RNA G4. The FRET melting assay was not appropriate for investigating ligand binding to this RNAs due to its high thermal stability (Tm > 72 °C).[26] We have therefore used a ligand-induced fluorescence quenching assay (FQA) to analyse the interaction of the DBAs with either 5′ or 3′ fluorescently labelled RNAs (Fig. S8). Since planar G4-ligands generally stack on an accessible G-quartet,[94–96] we expect the DBAs to also recognize G4s by stacking interactions. To conduct a fluorescence quenching experiment, a CY5 fluorophore is attached on the 3′ or 5′ end of the RNA. […] Thus, upon interaction of the ligand with the G-quartet, the ligand induces the quenching of the fluorescence emission. This test enables determination of the apparent association constants (Ka) of each DBA with the 5′ or 3′ quartet of the G4 structure (Fig. 4, Table S3). […] A similar difference in G-tetrad binding affinities has previously been observed for TMPyP4 and PhenDC3.[47]
# The fluorescently labeled oligonucleotides were dissolved at a concentration of 10 nM in 10 mM lithium cacodylate buffer (pH 7.2) with 10 mM KCl and 90 mM LiCl. […] Data are the results of at least three independent experiments in which each data point was performed in duplicate.
SMILES,Kd1 ([1]; site 1 of 2),"Kd1 (TG4T (DNA, G4) TGGGGT)",Kd ([2]; read-out: Kd1 G4T4G4),Kd ([2]; read-out: Kd2 G4T4G4),Ka rLTR4-3′Cy5 FQA ([3]; +10µM ds26),Kd ([3]; +10µM ds26),Ka rLTR4-3′Cy5 FQA ([3]; No ds26),Kd ([3]; No ds26),Kd1 ([1]; almost no complex detected),"Kd1 ([1]; site 1 of 2, almost no complex)"
COc1ccc2c(ccc3c2cc2c4ccc(OC)cc4ccc2[n+]3-c2ccc([N+](=O)[O-])cc2)c1 [DBA4],38.42 µM,5.42 µM,46.2 µM,26.6 µM,1.9±0.1 10^5 M,5.3 ± 1.1 µM,3.0±0.24 10^5 M,3.3 ± 0.4 µM,–,–
c1ccc(-[n+]2c3ccc4ccccc4c3cc3c4ccccc4ccc32)cc1 [DBA5],40.04 µM,21.57 µM,129 µM,33.4 µM,2.5±0.2 10^5 M,4 ± 0.6 µM,2.5±0.31 10^5 M,4 ± 0.3 µM,–,–
COC(=O)c1ccc(-[n+]2c3ccc4cc(OC)ccc4c3cc3c4ccc(OC)cc4ccc32)cc1 [DBA2],–,6.09 µM,51.2 µM,33.6 µM,1.2±0.08 10^5 M,8.6 ± 1.3 µM,1.5±0.06 10^5 M,6.7 ± 1.5 µM,833.14 µM,–
COc1ccc(-[n+]2c3ccc4cc(OC)ccc4c3cc3c4ccc(OC)cc4ccc32)cc1 [DBA3],–,13.62 µM,36.9 µM,37 µM,1.5±0.09 10^5 M,6.9 ± 1.1 µM,1.6±0.11 10^5 M,6.2 ± 1 µM,–,155.63 µM
COc1ccc2c(ccc3c2cc2c4ccc(OC)cc4ccc2[n+]3-c2ccccc2)c1 [DBA1],–,14.69 µM,47.1 µM,38.6 µM,2.8±0.23 10^5 M,3.3 ± 0.4 µM,3.1±0.2 10^5 M,3.2 ± 0.5 µM,1027.52 µM,–
